US5932548A, “Lysine containing peptides for treatment of heart disease” (priority 1998, dated 1999)
Non-standard residues stand in square brackets, D forms with d. Residues, ends and D or L forms follow the SMILES beside them. dTrp(2-Me) = Cc1[nH]c2ccccc2c1C[C@@H](N)C(=O)O

Assays:
[1] = tested on: growth hormone deficient rats; details: De Gennaro Colonna et al. 1997; cited from earlier work
isolated rat hearts = assay: coronary perfusion pressure (CPP) in isolated rat hearts; details: versus saline treatment (no peptide)
Description: (§1) In the examples that follow, data is presented for the most preferred lysine containing peptides of the invention. The GH releasing effect was measured in rats according to the method described by R. Deghenghi et al., Life Sci. 54: 1321-1328 (1994). The cardiac protection of the instant peptides has been measured essentially as described in the above cited publication by V. De Gennaro Colonna et al., Europ. J. Pharmacol. 334:201-207 (1997).
The effects on coronary perfusion pressure ("CPP") in isolated rat hearts have been measured using Hexarelin (His-D-Mrp-Ala-Trp-D-Phe-Lys-NH2) as reference compound and compared to that for the GH antagonist His-D-Mrp-D-Lys-Trp-D-Phe-Lys-NH2. An increase of CPP over a saline treatment (i.e., no peptide) of 110±10% was found for Hexarelin, but an increase of 160±25% was found for the antagonist.

rats = assay: GH releasing effect in rats; format: in vivo, rat
Description: as §1

Compound	effect on cardiac dysfunction [1]	increase of CPP over a saline treatment (isolated rat hearts) [%]	GH liberation (rats)
Cc1[nH]c2ccccc2c1C[C@@H](NC(=O)[C@@H](N)Cc1cnc[nH]1)C(=O)N[C@@H](C)C(=O)N[C@@H](Cc1c[nH]c2ccccc12)C(=O)N[C@H](Cc1ccccc1)C(=O)N[C@@H](CCCCN)C(N)=O [Hexarelin, His-D-Mrp-Ala-Trp-D-Phe-Lys-NH2] (H-H[dTrp(2-Me)]AW[dF]K-NH2)	reverse the worsening of cardiac dysfunction	110±10	
His-D-Mrp-D-Lys-Trp-D-Phe-Lys-NH2		160±25	does not liberate GH
